In patent publication US10443018B2, “Phenyl based compounds substituted with aldehyde moieties and their use in perfumery” (GIVAUDAN SA, priority 2014, dated 2019):

Tests used:
[1] = test system: Cryopreserved hepatocytes from male rats (Sprague Dawley); experiment: In vitro metabolism study in rat hepatocytes in suspension (GC-MS); details: for Residual conc.: male, Sprague Dawley, rat, 4 h, 100 μM
Method: In order to study in vitro metabolism in rat hepatocytes, Lilial™ and compounds of the present invention may be incubated in the presence of rat hepatocytes in suspension. Reduction in the concentration of Lilial™ and the compounds of the present invention and formation of any of the corresponding benzoic acid derivatives may be analysed by GC-MS.
Cryopreserved hepatocytes from male rats (Sprague Dawley; Lifetechnologies) were defrozen, washed in Cyropreserved Hepatocytes Recovery Medium (CHRM; Lifetechnologies) and suspended in Williams E Medium (WEM; Lifetechnologies). Lilial™, or the compounds of the present invention (final concentration: 100 μM) were added to the cells (1×10^6 viable cells/ml) and suspensions were incubated up to 4 hours at 37° C. on a shaker in duplicate. Metabolism of testosterone was monitored as positive control. Decrease of the test compounds and formation of the corresponding benzoic acid derivative was determined by GC-MS analysis of methyl esters formed after derivatisation with trimethylsilyl diazomethane (Sigma-Aldrich) in methanol. The test compounds react with diazomethane yielding a methyl ketone which was used for the quantification of Lilial™ and the compound of formula (I). Metabolism was stopped with ice cold 1 M HCl, samples were extracted with tert-butyl methyl ether (MTBE) and analysed by GC-MS. Incubations containing testosterone as control were also stopped with ice cold 1 M HCl, centrifuged to separate the cells, filtrated and the decrease of testosterone analysed by LC-MS.

mice = details: mouse, in vivo; cited from earlier work
guinea-pigs = details: guinea pig, in vivo; cited from earlier work
primates = details: cited from earlier work
[2] = test system: reproductive organs of dogs; details: dog, in vivo; cited from earlier work
[3] = test system: reproductive organs of male rats; details: rat, in vivo; cited from earlier work

Molecule `Cc1ccc(CCC=O)c(CC(C)C)c1` has a Residual conc. [1] of 0 µM.

In the case of `C[C@]12CC[C@H]3[C@@H](CCC4=CC(=O)CC[C@@]43C)[C@@H]1CC[C@@H]2O` [testosterone], the “decrease of testosterone (positive control)” value ([1]; rat hepatocytes, LC-MS) is reported as “rapid decrease”.

Work on `Cc1cc(CCC=O)cc(CC(C)C)c1` [Compound 1, 3-(3-Isobutyl-5-methylphenyl)propanal] yielded a Residual conc. [1] of 1.5 µM.

For `CC(C=O)Cc1ccc(C(C)(C)C)cc1` (stereo not drawn) [Lilial, 3-(4-tert-butylphenyl)-2-methylpropanal], the “effects in toxicity studies” value (mice) is listed as “No effects”, the “effects in toxicity studies” value (guinea-pigs) is listed as “No effects” and the Residual conc. [1] is listed as 0 µM. The “effects in toxicity studies” value (primates) was “No effects”, the “toxic effects on the reproductive organs” value [2] was “toxic effects” and the “toxic effects on the reproductive organs” value [3] was “toxic effects”.
